Reference: patent US12622896B2, “Antiviral compounds, compositions and methods of use” (THE UNIVERSITY OF BRITISH COLUMBIA, priority 2019, dated 2026)
Values joined by “and” are separate entries in the source; they are usually repeats but may differ in a detail not shown here. Equal entries are not always repeated. One block for each compound: values may come before it.

Experiments:
HIV-1NL4-3 = test: Preliminary anti-HIV screen: CEM-GXR reporter cells co-cultured with HIV-1NL4-3 infected cells, GFP by flow cytometry; conditions: for anti-HIV activity in the primary library screen: CEM-GXR cells, 1.25-10 μM, percent infected cells on day 3 (FIGS. 1A, 1B); for anti-HIV activity, rank within the analogue series: within the C-2 substituted thiophene or thiazole series
PBMCs = test: PBMC viability by ViaCount assay over 11 days; format: cell-based, human; conditions: up to 11 days; for cellular toxicity in PBMCs: 0.1-10 μM range
CEM-GXR cells = test: Guava ViaCount cytotoxicity on CEM-GXR cells; format: cell-based, human; conditions: for toxicity of thiophene analogues: C-2 CF3 thiophene analogues; for toxicity in the preliminary screen: at 5 μM, data not shown
Description: The ViaCount™ assay was performed with the Guava easyCyte 8HT™ flow cytometer according to the manufacturer's manual (Guava Technologies™, Inc., Hayward, CA, USA). In brief, CEM-GXR cells were seeded in 96-well plates 80000 cells/well in the absence or presence of compound in various concentrations. Twenty-four hours later, 25 μL of cell suspension was mixed with 225 μL of Guava ViaCount™ reagent, and the mixture was incubated for 5 min at room temperature. Sample acquisition and data analysis were performed with the selection of EasyFit™ analysis feature using the ViaCount™ software module.
The potential cytotoxic effect of the molecules on CEM-GXR cells viability was determined by the Guava ViaCount assay. This assay differentially stains viable and nonviable cells based on their permeability to the DNA-binding dyes and uses the forward scatter (FSC) properties to distinguish free nuclei and cellular debris from intact cells to quantify cell count. CEM-GXR cells were incubated with compound at concentrations ranging between 0.5 and 100 μM for 24 h.

[1] = system: HIV-1IIIB (subtype B, X4-tropic); test: Anti-HIV viral spread assay in CEM-GXR cells, wild-type subtype B; format: cell-based; conditions: Human immunodeficiency virus 1; CEM-GXR cells, viral spread, nonlinear regression; read-out: EC50 (WT Subtype B)
Source text: (§1) To validate these EC50 values, the anti-HIV drug, emtricitabine (FTC) was included in the anti-HIV assay as a positive control.

[2] = system: HIV-1 97USSN54 (subtype A, R5-tropic); test: Anti-HIV viral spread assay in CEM-GXR cells, wild-type subtype A; format: cell-based; conditions: Human immunodeficiency virus 1, nonlinear regression, read-out: EC50 (WT Subtype A)
Source text: as §1

[3] = system: PI-resistant isolate (2948); test: Anti-HIV assay against PI-resistant isolate 2948; conditions: Human immunodeficiency virus 1, read-out: EC50 against PI-resistant isolate 2948
HIV-1Bal strain = test: PBMC infection assay, p24Gag ELISA day 11, HIV-1BaL; conditions: read-out: EC50 against HIV-1Bal in PBMC; three separate donors, one value per donor; p24 day 11; listed as GPS488
[4] = system: Maraviroc-resistant variant of HIV-1BaL; test: Anti-HIV assay against Maraviroc-resistant R5 strain; conditions: Human immunodeficiency virus 1, read-out: EC50 against Maraviroc-resistant HIV-1 strain
[5] = system: clinical isolate (11845 INI); test: Anti-HIV assay against INI-resistant clinical isolate 11845; conditions: Human immunodeficiency virus 1, read-out: EC50 against 11845 clinical isolate
[6] = system: Bcl-x transcript splicing; test: SR-protein induced Bcl-x splicing, X2.13 minigene in 293 cells, RT-PCR; format: cell-based; conditions: 10 μM
[7] = system: (N)NRTI-resistant isolate (E00443); test: Anti-HIV assay against (N)NRTI-resistant isolate E00443; conditions: Human immunodeficiency virus 1, read-out: EC50 against isolate E00443
HIV = conditions: literature; cited from earlier work

SMILES: O=C(Nc1nc2c(Cl)cccc2s1)c1ccc([N+](=O)[O-])s1 [5a, N-(4-Chlorobenzo[d]thiazol-2-yl)-5-nitrothiophene-2-carboxamide]
anti-HIV activity in the primary library screen (HIV-1NL4-3): significant activity

SMILES: O=C(Nc1nc2ccc(Cl)cc2s1)c1ccc([N+](=O)[O-])s1 [5d, N-(6-Chlorobenzo[d]thiazol-2-yl)-5-nitrothiophene-2-carboxamide]
anti-HIV activity in the primary library screen (HIV-1NL4-3): significant activity

SMILES: [N-]=[N+]=Nc1ccc2nc(NC(=O)c3cnc(C(F)(F)F)s3)sc2c1 [12e, N-(6-azidobenzo[d]thiazol-2-yl)-2-(trifluoromethyl)thiazole-5-carboxamide]
anti-HIV activity, rank within the analogue series (HIV-1NL4-3): most active | cellular toxicity in PBMCs at 1 μM (PBMCs): minimal toxicity | cellular toxicity in PBMCs (PBMCs): minimal toxicity

SMILES: O=C(Nc1nc2ccc(F)cc2s1)c1ccc([N+](=O)[O-])s1 [5j, N-(6-Fluorobenzo[d]thiazol-2-yl)-5-nitrothiophene-2-carboxamide]
anti-HIV activity in the primary library screen (HIV-1NL4-3): moderate to weak

SMILES: O=C(Nc1nc2ccc(Br)cc2s1)c1ccc([N+](=O)[O-])s1 [5k, N-(6-Bromobenzo[d]thiazol-2-yl)-5-nitrothiophene-2-carboxamide]
anti-HIV activity in the primary library screen (HIV-1NL4-3): moderate to weak

SMILES: O=C(Nc1nc2ccc([N+](=O)[O-])cc2s1)c1ccc(C(F)(F)F)s1 [8b, N-(6-nitrobenzo[d]thiazol-2-yl)-5-(trifluoromethyl)thiophene-2-carboxamide]
anti-HIV activity, rank within the analogue series (HIV-1NL4-3): most active | toxicity of thiophene analogues (CEM-GXR cells): toxicity at low micromolar concentrations

SMILES: O=C(Nc1nc2ccc([N+](=O)[O-])cc2s1)c1cnc(C(F)(F)F)s1 [12b, N-(6-nitrobenzo[d]thiazol-2-yl)-2-(trifluoromethyl)thiazole-5-carboxamide]
anti-HIV activity, rank within the analogue series (HIV-1NL4-3): most active

SMILES: O=C(Nc1nc2c(Cl)cc(Cl)cc2s1)c1ccc([N+](=O)[O-])s1 [5e, N-(4,6-Dichlorobenzo[d]thiazol-2-yl)-5-nitrothiophene-2-carboxamide]
anti-HIV activity in the primary library screen (HIV-1NL4-3): significant activity | toxicity in the preliminary screen (CEM-GXR cells): toxicity

SMILES: O=C(Nc1nc2ccc(C(F)(F)F)cc2s1)c1ccc([N+](=O)[O-])s1 [5h, 5-Nitro-N-(6-(trifluoromethyl)benzo[d]thiazol-2-yl)thiophene-2-carboxamide]
anti-HIV activity in the primary library screen (HIV-1NL4-3): significant activity

SMILES: O=C(Nc1nc2ccc([N+](=O)[O-])cc2s1)c1ccc([N+](=O)[O-])s1 [5c, 5-Nitro-N-(6-nitrobenzo[d]thiazol-2-yl)thiophene-2-carboxamide]
anti-HIV activity in the primary library screen (HIV-1NL4-3): significant activity

EC50 [1]: 33.7 nM | EC50 [2]: 26.3 nM
SMILES: Nc1nc(=O)n([C@@H]2CS[C@H](CO)O2)cc1F [FTC, emtricitabine, reference compound]

SMILES: O=C(Nc1nc2cc(Br)ccc2s1)c1ccc([N+](=O)[O-])s1 [5f, N-(5-Bromobenzo[d]thiazol-2-yl)-5-nitrothiophene-2-carboxamide]
anti-HIV activity in the primary library screen (HIV-1NL4-3): significant activity | toxicity in the preliminary screen (CEM-GXR cells): toxicity

SMILES: O=C(Nc1nc2c(Cl)cccc2s1)c1cnc(C(F)(F)F)s1 [12a, N-(4-chlorobenzo[d]thiazol-2-yl)-2-(trifluoromethyl)thiazole-5-carboxamide]
EC50 [3]: 1170 nM | EC50 (HIV-1Bal strain): 335 nM and 44 nM and 200 nM | EC50 [4]: 969 nM | anti-HIV activity, rank within the analogue series (HIV-1NL4-3): most active | EC50 [5]: 951 nM | EC50 [1]: 1290 nM | cellular toxicity in PBMCs at 1 μM (PBMCs): minimal toxicity | cellular toxicity in PBMCs (PBMCs): some cellular toxicity | EC50 [2]: 955 nM | generation of Bcl-xL splicing variant with SRSF1 or SRSF9 [6]: did not have any impact | abundance of Bcl-xS splice variant with SRSF2 ([6]; 24 hour): increased abundance | abundance of Bcl-xS splice variant with SRSF7 ([6]; 24 hour): decreased abundance | EC50 [7]: 1160 nM

SMILES: O=C(Nc1nc2ccc(OC(F)(F)F)cc2s1)c1ccc([N+](=O)[O-])s1 [5b, 5-Nitro-N-(6-(trifluoromethoxy)benzo[d]thiazol-2-yl)thiophene-2-carboxamide]
anti-HIV activity in the primary library screen (HIV-1NL4-3): significant activity | toxicity in the preliminary screen (CEM-GXR cells): toxicity

SMILES: CCOC(=O)c1ccc2nc(NC(=O)c3ccc([N+](=O)[O-])s3)sc2c1 [5i, Ethyl 2-(5-nitrothiophene-2-carboxamido)benzo[d]thiazole-6-carboxylate]
anti-HIV activity in the primary library screen (HIV-1NL4-3): moderate to weak

SMILES: O=C(Nc1nc2c(Cl)cccc2s1)c1ccc(C(F)(F)F)s1 [8a, N-(4-Chlorobenzo[d]thiazol-2-yl)-5-(trifluoromethyl)thiophene-2-carboxamide]
anti-HIV activity, rank within the analogue series (HIV-1NL4-3): most active

SMILES: O=C(Nc1nc2ccccc2s1)c1ccc([N+](=O)[O-])s1 [5g, N-(Benzo[d]thiazol-2-yl)-5-nitrothiophene-2-carboxamide]
anti-HIV activity in the primary library screen (HIV-1NL4-3): moderate to weak

SMILES: O=C(Nc1nc2ccc(C(F)(F)F)cc2s1)c1ccc(C(F)(F)F)s1 [8c, 5-(trifluoromethyl)-N-(6-(trifluoromethyl)benzo[d]thiazol-2-yl)thiophene-2-carboxamide]
anti-HIV activity, rank within the analogue series (HIV-1NL4-3): most active | toxicity of thiophene analogues (CEM-GXR cells): toxicity at low micromolar concentrations

SMILES: O=[N+]([O-])c1ccc(C=Cc2ccc3ccccc3n2)s1 [compound 5350150, 2-(2-(5-nitro-2-thienyl)vinyl)quinolone]
HIV replication (HIV): blocked HIV replication
